Test results: ChEMBL document CHEMBL1821562, “Amine-constrained pyridazinone histamine H₃ receptor antagonists” (Bioorg Med Chem Lett, 2011)
Blank lines part the entries; values can stand above or below the molecule they belong to.

Assays:
[1] = target: Histamine H3 receptor (Homo sapiens, UniProt Q9Y5N1); test: Displacement of [3H]-NAMH from human histamine H3 receptor
[2] = Ratio of drug level in brain to plasma in rat at 10 mg/kg, ip; format: ADME, organism-based; set-up: dose 10 mg/kg, route intraperitoneal; settings: brain and plasma, read-out: BPR
[3] = Metabolic stability in rat liver microsomes assessed as half life; format: ADME, Microsome
[4] = Metabolic stability in dog liver microsomes assessed as half life; format: ADME, Canis lupus familiaris, Microsome
[5] = Metabolic stability in human liver microsomes assessed as half life; format: ADME, Microsome
[6] = Tmax in rat at 5 mg/kg, po; format: ADME, organism-based; set-up: dose 5 mg/kg, route oral; settings: in vivo
[7] = Oral bioavailability in rat at 5 mg/kg; format: ADME, organism-based; settings: in vivo
[8] = Cmax in rat at 5 mg/kg, po; format: ADME, organism-based; set-up: dose 5 mg/kg, route oral; settings: in vivo
[9] = target: Histamine H3 receptor (Rattus norvegicus, UniProt Q9QYN8); test: Displacement of [3H]-NAMH from rat histamine H3 receptor
[10] = system: Rattus norvegicus; test: AUC (0 to 6 hrs) in rat at 5 mg/kg, po; format: ADME, organism-based, Plasma; set-up: time < 6 hr, dose 5 mg/kg, route oral; settings: in vivo
[11] = Volume of distribution in rat at 1 mg/kg, iv; format: ADME, organism-based; set-up: dose 1 mg/kg, route intravenous; settings: in vivo
[12] = Metabolic stability in mouse liver microsomes assessed as half life; format: ADME, Microsome
[13] = Drug uptake in rat brain at 10 mg/kg, ip after 1 hr; format: ADME, organism-based; set-up: dose 10 mg/kg, route intraperitoneal; settings: read-out: Drug uptake
[14] = target: Cytochrome P450 2C9 (Homo sapiens, UniProt P11712); test: Inhibition of CYP2C9; format: ADME
[15] = target: T1, Cytochrome P450 1A2 (Homo sapiens, UniProt P05177); test: Inhibition of CYP1A2; format: ADME
T1 sequence (P05177 whole entry): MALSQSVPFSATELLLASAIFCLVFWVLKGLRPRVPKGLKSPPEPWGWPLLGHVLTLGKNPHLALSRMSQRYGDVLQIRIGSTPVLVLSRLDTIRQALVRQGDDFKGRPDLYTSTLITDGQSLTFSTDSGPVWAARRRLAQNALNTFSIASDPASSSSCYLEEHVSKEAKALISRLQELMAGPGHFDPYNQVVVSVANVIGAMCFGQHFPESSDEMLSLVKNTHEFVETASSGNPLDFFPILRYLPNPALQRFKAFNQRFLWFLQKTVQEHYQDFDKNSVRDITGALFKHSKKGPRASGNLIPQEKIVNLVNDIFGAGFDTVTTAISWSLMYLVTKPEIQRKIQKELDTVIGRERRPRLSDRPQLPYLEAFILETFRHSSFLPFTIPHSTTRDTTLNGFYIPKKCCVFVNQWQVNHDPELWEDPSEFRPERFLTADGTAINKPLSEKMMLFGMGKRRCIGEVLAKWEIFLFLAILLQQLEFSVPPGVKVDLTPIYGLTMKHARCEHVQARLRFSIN

[16] = Half life in rat at 1 mg/kg, iv; format: ADME, organism-based; set-up: dose 1 mg/kg, route intravenous; settings: in vivo
[17] = target: Cytochrome P450 2C19 (Homo sapiens, UniProt P33261); test: Inhibition of CYP2C19; format: ADME
[18] = target: Cytochrome P450 3A4 (Homo sapiens, UniProt P08684); test: Inhibition of CYP3A4; format: ADME
[19] = Clearance in rat at 1 mg/kg, iv; format: ADME, organism-based; set-up: dose 1 mg/kg, route intravenous; settings: in vivo
[20] = target: Cytochrome P450 2D6 (Homo sapiens, UniProt P10635); test: Inhibition of CYP2D6; format: ADME
[21] = Cmax in po dosed rat; format: ADME, organism-based; set-up: route oral; settings: in vivo
[22] = Drug uptake in ip dosed rat brain after 1 hr; format: ADME, organism-based; settings: read-out: Drug uptake
[23] = Oral bioavailability in rat; format: ADME, organism-based; settings: in vivo
[24] = Ratio of drug level in brain to plasma in ip dosed rat; format: ADME, organism-based; settings: brain and plasma, read-out: BPR
[25] = system: Rattus norvegicus; test: AUC (0 to 6 hrs) in po dosed rat; format: ADME, organism-based, Plasma; set-up: time < 6 hr, route oral; settings: in vivo

Histamine H3 receptor (Rattus norvegicus, UniProt Q9QYN8), sequence (Q9QYN8 whole entry): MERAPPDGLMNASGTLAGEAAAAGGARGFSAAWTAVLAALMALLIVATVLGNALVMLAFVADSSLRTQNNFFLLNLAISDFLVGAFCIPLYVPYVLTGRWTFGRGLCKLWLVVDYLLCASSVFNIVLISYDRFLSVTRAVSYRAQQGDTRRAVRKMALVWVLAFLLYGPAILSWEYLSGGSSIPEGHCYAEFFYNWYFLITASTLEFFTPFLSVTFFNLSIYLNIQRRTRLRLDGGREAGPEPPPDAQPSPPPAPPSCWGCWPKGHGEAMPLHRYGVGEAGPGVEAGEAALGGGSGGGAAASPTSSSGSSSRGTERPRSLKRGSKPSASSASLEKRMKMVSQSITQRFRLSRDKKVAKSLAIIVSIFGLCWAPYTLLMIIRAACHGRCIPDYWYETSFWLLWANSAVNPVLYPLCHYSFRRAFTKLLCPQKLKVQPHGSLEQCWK
Histamine H3 receptor (Homo sapiens, UniProt Q9Y5N1), sequence (Q9Y5N1 whole entry): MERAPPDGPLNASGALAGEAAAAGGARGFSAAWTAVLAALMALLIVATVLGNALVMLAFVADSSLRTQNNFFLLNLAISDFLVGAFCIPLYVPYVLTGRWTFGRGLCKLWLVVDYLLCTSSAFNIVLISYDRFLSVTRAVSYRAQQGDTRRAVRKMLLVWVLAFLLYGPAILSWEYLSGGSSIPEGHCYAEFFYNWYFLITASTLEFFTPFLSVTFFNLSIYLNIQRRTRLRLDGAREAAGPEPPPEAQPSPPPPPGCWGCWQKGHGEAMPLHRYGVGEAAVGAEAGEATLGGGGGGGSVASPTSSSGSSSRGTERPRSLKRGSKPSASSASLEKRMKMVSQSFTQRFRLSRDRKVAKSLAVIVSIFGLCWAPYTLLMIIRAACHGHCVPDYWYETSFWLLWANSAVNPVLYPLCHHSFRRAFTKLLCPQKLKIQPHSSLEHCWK
Cytochrome P450 2D6, sequence (P10635 whole entry): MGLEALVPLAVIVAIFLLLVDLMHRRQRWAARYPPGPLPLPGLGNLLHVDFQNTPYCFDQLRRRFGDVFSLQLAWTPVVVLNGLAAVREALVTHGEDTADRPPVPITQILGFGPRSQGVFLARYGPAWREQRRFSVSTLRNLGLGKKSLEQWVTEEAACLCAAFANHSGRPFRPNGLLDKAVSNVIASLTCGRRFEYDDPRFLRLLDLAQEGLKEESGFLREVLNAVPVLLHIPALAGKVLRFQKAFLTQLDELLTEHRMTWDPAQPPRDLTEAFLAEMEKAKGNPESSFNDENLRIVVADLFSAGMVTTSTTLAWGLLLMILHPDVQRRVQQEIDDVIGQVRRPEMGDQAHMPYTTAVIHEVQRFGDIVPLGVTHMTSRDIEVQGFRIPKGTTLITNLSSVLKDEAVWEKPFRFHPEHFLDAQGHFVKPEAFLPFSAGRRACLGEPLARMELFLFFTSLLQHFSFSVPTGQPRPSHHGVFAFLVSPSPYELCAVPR
Cytochrome P450 3A4, sequence (P08684 whole entry): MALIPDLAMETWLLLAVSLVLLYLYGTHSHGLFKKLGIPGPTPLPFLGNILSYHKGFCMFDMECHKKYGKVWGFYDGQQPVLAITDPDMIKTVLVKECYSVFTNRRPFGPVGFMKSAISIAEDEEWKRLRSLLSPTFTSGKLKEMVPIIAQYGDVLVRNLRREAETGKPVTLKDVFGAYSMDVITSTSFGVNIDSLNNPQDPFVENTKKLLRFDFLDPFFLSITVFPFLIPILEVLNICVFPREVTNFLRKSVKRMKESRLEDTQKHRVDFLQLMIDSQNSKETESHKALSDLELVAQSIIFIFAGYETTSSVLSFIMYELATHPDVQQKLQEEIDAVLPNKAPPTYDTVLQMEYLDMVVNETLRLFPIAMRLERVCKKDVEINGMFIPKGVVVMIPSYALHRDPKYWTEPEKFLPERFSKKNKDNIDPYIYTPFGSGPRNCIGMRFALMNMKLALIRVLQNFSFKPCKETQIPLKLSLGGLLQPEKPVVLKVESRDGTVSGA
Cytochrome P450 2C9, sequence (P11712 whole entry): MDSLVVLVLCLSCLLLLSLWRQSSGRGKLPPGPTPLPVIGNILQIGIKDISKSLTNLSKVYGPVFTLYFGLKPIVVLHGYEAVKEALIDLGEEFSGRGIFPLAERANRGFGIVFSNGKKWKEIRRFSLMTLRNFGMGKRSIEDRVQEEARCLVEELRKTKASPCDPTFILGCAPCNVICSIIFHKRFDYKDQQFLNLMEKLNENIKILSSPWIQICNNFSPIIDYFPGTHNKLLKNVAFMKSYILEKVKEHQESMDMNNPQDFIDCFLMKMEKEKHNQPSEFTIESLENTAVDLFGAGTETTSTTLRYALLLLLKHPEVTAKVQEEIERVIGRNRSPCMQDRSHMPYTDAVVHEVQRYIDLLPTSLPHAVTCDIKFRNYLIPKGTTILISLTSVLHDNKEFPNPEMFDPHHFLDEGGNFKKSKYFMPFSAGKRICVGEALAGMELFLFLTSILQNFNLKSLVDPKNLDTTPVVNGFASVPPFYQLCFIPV
Cytochrome P450 2C19, sequence (P33261 whole entry): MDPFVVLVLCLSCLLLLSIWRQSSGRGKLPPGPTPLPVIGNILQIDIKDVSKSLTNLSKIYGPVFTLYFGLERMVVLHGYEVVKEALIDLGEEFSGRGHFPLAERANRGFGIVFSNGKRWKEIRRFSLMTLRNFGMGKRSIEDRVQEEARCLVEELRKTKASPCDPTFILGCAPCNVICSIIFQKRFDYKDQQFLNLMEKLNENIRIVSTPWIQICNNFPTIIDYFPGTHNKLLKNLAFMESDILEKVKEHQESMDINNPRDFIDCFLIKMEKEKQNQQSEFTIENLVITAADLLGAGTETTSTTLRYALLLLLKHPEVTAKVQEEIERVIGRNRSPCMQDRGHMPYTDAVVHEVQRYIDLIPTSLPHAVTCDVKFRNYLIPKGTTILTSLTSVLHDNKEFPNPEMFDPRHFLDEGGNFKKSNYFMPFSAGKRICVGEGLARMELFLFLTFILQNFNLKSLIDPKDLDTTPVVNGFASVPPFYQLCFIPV

- Ki [1]: 1 nM
- Kp [2]: 3.9
- half-life [3]: > 40 min
- half-life [4]: > 40 min
- half-life [5]: > 40 min
- Tmax [6]: 60 min
- bioavailability [7]: 28%
- Cmax [8]: 123 ng/mL
- Ki [9]: 6 nM
- AUC [10]: 538 ng·h/mL
- Vd [11]: 6.5 L/kg
- half-life [12]: > 40 min
- concentration at 1 h [13]: 3440 ng/g
SMILES: C[C@@H]1CCCN1CCCOc1ccc(-c2ccc(=O)n(C)n2)cc1

- Ki [1]: > 1000 nM
- Ki [9]: > 1000 nM
SMILES: Cn1nc(-c2ccc(C(=O)N3CCN4CCC[C@H]4C3)cc2)ccc1=O

- Ki [1]: 3 nM
- Ki [9]: 3 nM
- half-life [12]: 35 min
SMILES: Cn1nc(-c2ccc(OC3CCN(C4CCC4)CC3)cc2)ccc1=O

- Ki [1]: 3 nM
- Ki [9]: 6 nM
SMILES: Cn1nc(-c2ccc(OC3CCN(C4CCCC4)CC3)cc2)ccc1=O

- Ki [1]: > 500 nM
- Ki [9]: > 1000 nM
SMILES: CN1CCCN(c2ccc(-c3ccc(=O)n(C)n3)cc2)CC1

- Ki [1]: 93 nM
- Ki [9]: 255 nM
SMILES: Cn1nc(-c2ccc(N3CCN(C4CCCC4)CC3)cc2)ccc1=O

- Ki [1]: 110 nM
- Ki [9]: 419 nM
SMILES: CC(C)N1CCN(c2ccc(-c3ccc(=O)n(C)n3)cc2)CC1

SMILES: Cn1nc(-c2ccc(N3CCN4CCC[C@H]4C3)cc2)ccc1=O
- Ki [1]: 308 nM
- Ki [9]: > 1000 nM

- Ki [1]: 134 nM
- Ki [9]: 186 nM
SMILES: Cn1nc(-c2ccc(C(=O)N3CCN(C4CCCC4)CC3)cc2)ccc1=O

- Ki [1]: 167 nM
- Ki [9]: 185 nM
SMILES: CC(C)N1CCN(C(=O)c2ccc(-c3ccc(=O)n(C)n3)cc2)CC1

- Ki [1]: 10 nM
- IC50 [14]: > 30000 nM
- IC50 [15]: > 30000 nM
- Kp [2]: 0.37
- half-life [3]: > 40 min
- half-life [16]: 96 min
- IC50 [17]: > 30000 nM
- half-life [4]: > 40 min
- half-life [5]: > 40 min
- bioavailability [7]: 45%
- Cmax [8]: 412 ng/mL
- IC50 [18]: > 30000 nM
- Ki [9]: 84 nM
- clearance [19]: 18 mL/min/kg
- AUC [10]: 2180 ng·h/mL
- Vd [11]: 2.5 L/kg
- IC50 [20]: > 30000 nM
- half-life [12]: > 40 min
- concentration at 1 h [13]: 454 ng/g
SMILES: Cn1nc(-c2ccc(C(=O)N3CCC[C@H]3CN3CCCC3)cc2)ccc1=O

- Ki [1]: 16 nM
- Kp [2]: 0.7
- half-life [3]: > 40 min
- half-life [16]: 60 min
- half-life [4]: > 40 min
- half-life [5]: > 40 min
- bioavailability [7]: 13%
- Cmax [8]: 180 ng/mL
- Ki [9]: 92 nM
- clearance [19]: 12 mL/min/kg
- AUC [10]: 1020 ng·h/mL
- Vd [11]: 1.1 L/kg
- half-life [12]: > 40 min
- concentration at 1 h [13]: 529 ng/g
SMILES: O=C(c1ccc(-c2ccc(=O)n(-c3ccc(F)cc3)n2)cc1)N1CCC[C@H]1CN1CCCC1

- Ki [1]: 17 nM
- Ki [9]: 46 nM
SMILES: O=C(c1ccc(-c2ccc(=O)[nH]n2)cc1)N1CCC[C@H]1CN1CCCC1

- Cmax [21]: 435 ng/mL
- concentration at 1 h [22]: 1660 ng/g
- bioavailability [23]: 51%
- Kp [24]: 1.4
- AUC [25]: 2600 ng·h/mL
SMILES: CNC(=O)c1ccc(Oc2ccc3c(c2)CCN(C2CCC2)CC3)nc1 [GSK189254]
